The values below come from patent US6403593B1, “Triazole compounds and the use thereof” (Abbott Laboratories, priority 1995, dated 2002).

A word on the melting point: it is the temperature of the solid-liquid transition. In general, Ki refers to a measure of affinity in units of concentration, obtained from inhibition or displacement.

Counter-ions that a name gives are not always drawn. Like-named read-outs stand apart in the source and are kept apart here.

For one data set, the target named is T1, human D3 receptor (Homo sapiens, UniProt P35462).
T1 construct: host or cells: CCL 1.3 mouse fibroblasts
T1 sequence (P35462 whole entry): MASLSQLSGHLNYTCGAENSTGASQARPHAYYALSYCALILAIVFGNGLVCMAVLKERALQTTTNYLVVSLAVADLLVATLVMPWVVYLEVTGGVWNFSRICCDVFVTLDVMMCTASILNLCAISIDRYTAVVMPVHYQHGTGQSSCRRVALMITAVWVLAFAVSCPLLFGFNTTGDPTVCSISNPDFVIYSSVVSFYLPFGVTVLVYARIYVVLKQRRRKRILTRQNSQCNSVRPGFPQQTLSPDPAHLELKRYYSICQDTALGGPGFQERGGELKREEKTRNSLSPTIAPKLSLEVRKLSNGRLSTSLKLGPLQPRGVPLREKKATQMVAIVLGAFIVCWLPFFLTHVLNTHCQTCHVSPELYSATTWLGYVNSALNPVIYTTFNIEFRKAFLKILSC
Description: D3 binding assay (125I-iodosulpiride). The conditions noted are these: for Selectivity KiD2/KiD3: ratio of D2 (3H-spiperone) Ki to D3 (125I-sulpiride) Ki. As to the method:
Cloned human D3 receptor-expressing CCL 1.3 mouse fibroblasts obtained from Res. Biochemicals Internat. One Strathmore Rd., Natick, Mass. 01760-2418 USA, were used for the binding studies.
The D3-expressing cells where grown in RPMI-1640 containing 10% fetal calf serum (GIBCO No. 041-32400 N); 100 U/ml penicillin and 0.2% streptomycin (GIBCO BRL, Gaithersburg, Md., USA). After 48h, the cells were washed with PBS and incubated with 0.05% trypsin-containing PBS for 5 min. Neutralization with medium was then carried out, and the cells were collected by centrifugation at 300×g. To lyze the cells, the pellet was briefly washed with lysis buffer (5 mM tris-HCl, pH 7.4, with 10% glycerol) and then incubated in a concentration of 10^7 cells/ml of lysis buffer at 4° C. for 30 min. The cells were centrifuged at 200×g for 10 min and the pellet was stored in liquid nitrogen.
For the D3 receptor binding assay, the membranes were suspended in incubation buffer (50 mM tris-HCl, pH 7.4, with […], 5 mM KCl, 2 mM CaCl2, 2 mM MgCl2, 10 μM quinolinol, 0.1% ascorbic acid and 0.1% BSA) in a concentration of about 10^6 cells/250 μl of assay mixture and incubated at 30° C. with 0.1 nM ^125iodosulpiride in the presence and absence of test substance. The non-specific binding was determines using 10^−6 M spiperone.
After 60 min, the free and the bound radioligand was separated by filtration through GF/B glasd fiber filters (Whatman, England) on a Skatron cell collector (Skatron, Lier, Norway), and the filters were washed with ice-cold tris-HCl buffer, pH 7.4. The radioactivity collected on the filters was quantified using a Packard 2200 CA ligand scintillation counter.
The Ki values were determined by non-linear regression analysis using the LIGAND program.

[1] abbreviates: cloned human D3 receptor in CCL 1.3 mouse fibroblast membranes, 0.1 nM 125I-iodosulpiride, read-out: D3 125I-sulpiride Ki.

`CNc1nnc(SCCCN2CCN(c3cccc(C(F)F)c3)CC2)n1C` (as salt: hydrochloride) [Example 37] registered a melting point of 234 to 235 °C.
Regarding `Cn1c(N)nnc1SCCCN1CCN(c2cccc(C(F)(F)F)c2)CC1` [Example 10], on human D3 receptor, the Ki was 4.5 nM and the “Selectivity KiD2/KiD3” value came to 49.
Turning to `Cn1c(N)nnc1SCCCN1CCN(c2cc(C(C)(C)C)cc(C(C)(C)C)c2)CC1` [Example 15], the Ki at human D3 receptor (setting [1]) stood at 8.8 nM. Besides, the “Selectivity KiD2/KiD3” value at human D3 receptor amounted to 58.
As to `CCn1c(N)nnc1SCCCN1CCN(c2cccc(C(F)F)c2)CC1` [Example 24], the inhibition constant Ki on human D3 receptor (setting [1]) is 1.8 nM. In addition, the “Selectivity KiD2/KiD3” value at human D3 receptor amounted to 67.
As to `CNc1nnc(SCCCN2CCN(c3cccc(C(F)F)c3)CC2)n1C` [Example 37], the Ki at human D3 receptor (setting [1]) was 1.7 nM. For the same compound, the “Selectivity KiD2/KiD3” value at human D3 receptor came out at 176.
Compound `Cc1cc(N2CCN(CCCSc3nnc(N)n3C)CC2)nc(-n2cccc2)n1` [Example 41] gave a melting point of 65 to 67 °C. Besides, the Ki on human D3 receptor (setting [1]) was 8.1 nM. Also, the “Selectivity KiD2/KiD3” value at human D3 receptor is recorded as 185.
Regarding `CC(=CCN1CCN(c2cc(C(F)(F)F)nc(C(C)(C)C)n2)CC1)CSc1nnc(N)n1C` [Example 42], the melting point was 67 to 72 °C. Moreover, the Ki at human D3 receptor (setting [1]) came out at 13.4 nM. Besides, at human D3 receptor, the “Selectivity KiD2/KiD3” value turned out to be 182.
With `Cc1nnc(/C=C/CN2CCN(c3ccccc3)CC2)n1-c1ccccc1` [reference compound], at human D3 receptor (D3 binding assay), the “affinity for the D3 receptor (in words)” value was “virtually no affinity”. In addition, the inhibitory constant (Ki) on human D3 receptor (setting [1]) was determined as 4100 nM.
